{"source": "paper PMC9503778", "about": "“Targeted Isolation of Antibiotic Brominated Alkaloids from the Marine Sponge Pseudoceratina durissima Using Virtual Screening and Molecular Networking” (Marine Drugs, 2022)", "key": {"[1]": {"test_system": "zebrafish larvae at 5 dpf", "design": "method as in PMID 35200664", "settings": "cited from earlier work"}, "[2]": {"assay": "Cytotoxicity assay (CO-ADD)", "format": "cell-based", "settings": "human, human embryonic kidney cells"}, "human red blood cells": {"test_system": "human red blood cells", "assay": "Haemolysis assay (CO-ADD)", "format": "cell-based"}, "[3]": {"test_system": "MRSA (G+) strain ATCC 43300", "assay": "Antimicrobial growth inhibition (CO-ADD), MRSA", "format": "cell-based, Staphylococcus aureus", "settings": "Staphylococcus aureus; ATCC 43300; MIC = concentration at which growth inhibited by ≥80%, range 0.25−32 µg/mL; read-out: MIC MRSA", "procedure": "(§1) Compounds 1−3 and 5−12 were assayed against a selection of medically important pathogenic microorganisms (MRSA, E. coli, K. pneumoniae, A. baumanii, P. aeruginosa, C. albicans, C. neoformans), Table 4. […] To the best of our knowledge this compound had not been tested against any drug resistant strain of Gram-positive bacterium until this study.\n(§2) The antimicrobial activity testing was performed by the Community for Antimicrobial Drug Discovery (CO-ADD). Compounds were assayed against a range of both Gram negative and Gram positive bacteria (see Supplementary Materials S3) including methicillin-resistant Staphylococcus aureus (MRSA) (G+), Escherichia coli (G-), Klebsiella pneumoniae (G-), Acinetobacter baumannii (G-), Pseudomonas aeruginosa (G-) together with two species of fungus (Candida albicans and Cryptococcus neoformans).\n(§3) S3. Antimicrobial activity testing methodology\n(§4) The compounds submitted to CO-ADD were evaluated in duplicate (n = 2) against seven microorganisms (five bacteria and two fungi) at a concentration of 32 µg/mL in a 384-well, non-binding surface plate (NBS) for each bacterial/fungal strain, keeping the final DMSO concentration to a maximum of 1% DMSO. All bacteria were cultured in cation-adjusted Mueller-Hinton broth (CAMHB) at 37 °C overnight. A sample of each culture was then diluted 40-fold in fresh broth and incubated at 37 °C for 1.5-3 h. The resultant mid-log phase cultures were diluted (CFU/mL measured by OD600), then added to each well of the compound containing plates, giving a cell density of 5x10^5 CFU/mL and a total volume of 50 µL. All the plates were covered and incubated at 37 °C for 18 h without shaking. […] Inhibition of bacterial growth was determined measuring absorbance at 600 nm (OD600) using a Tecan M1000 Pro mon-ochromator plate reader. […]\n(§5) 2 h. The absorbance was measured using a Biotek Synergy HTX plate reader. The percentage of growth inhibition was calculated for each well, using negative control (medium only) and positive control (bacteria without inhibitors) on the same plate as the references. The significance of inhibition values was determined by modified Z-scores, calculated using the median and MAD of the samples (no controls) on the same plate. Samples with inhibition value above 80% and Z-score above 2.5 for either replicate (n = 2 on different plates) were classed as actives.\n(§6) Colistin and vancomycin were used as positive bacterial inhibitor standards for Gram-negative and Gram-positive bac-teria, respectively. Fluconazole was used as a positive fungal inhibitor standard for C. albicans and C. neoformans. The antibiotics were provided in four concentrations, with two above and two below its MIC value, and plated into the first eight wells of column 23 of the 384-well NBS plates. The quality control (QC) of the assays was determined by the antimicrobial controls and the Z’-factor (using positive and negative controls). Each plate was deemed to fulfil the qual- […]\n(§7) full growth inhibition at their highest concentration, and no growth inhibition at their lowest concentration. The seven […]\n(§8) test microorganisms were Staphylococcus aureus MRSA (ATCC 43300), Escherichia coli (ATCC 25922), Klebsiella pneu-moniae (ATCC 700603), Acinetobacter baumanii (ATCC19606), Pseudomonas aeruginosa (ATCC 27853), Candida albicans (ATCC 90028) and Cryptococcus neoformans var. grubii (H99; ATCC 208821).\n(§9) S4. Anthelmintic activity testing methodology\n(§10) Dose-response evaluations were carried out to estimate the half-maximal inhibitory concentrations (IC50 values) for compounds against Haemonchus contortus (Haecon-5 strain) exsheathed third-stage larvae (xL3s). H. contortus were maintained in experimental sheep and procured in accordance with the institutional animal ethics guidelines and the regulations of Australia (permit no. 1714374; University of Melbourne). Immediately prior to use, third-stage larvae (L3s) were exsheathed and sterilised by incubation in 0.15% (v/v) bleach at 38 °C for 20 min, followed by washes in […]"}, "[4]": {"test_system": "E. Coli (G-) strain ATCC 25922", "assay": "Antimicrobial growth inhibition (CO-ADD), E. coli", "format": "cell-based, Escherichia coli", "procedure": "as §1, §2, §3, §4, §5, §6, §7, §8, §9, §10"}, "[5]": {"test_system": "K. pneumoniae (G-) strain ATCC 700603", "assay": "Antimicrobial growth inhibition (CO-ADD), K. pneumoniae", "format": "cell-based, Klebsiella pneumoniae", "procedure": "as §1, §2, §3, §4, §5, §6, §7, §8, §9, §10"}, "[6]": {"test_system": "A. baumannii (G-) strain ATCC 19606", "assay": "Antimicrobial growth inhibition (CO-ADD), A. baumannii", "format": "cell-based, Acinetobacter baumannii", "procedure": "as §1, §2, §3, §4, §5, §6, §7, §8, §9, §10"}, "[7]": {"test_system": "P. auruginosa (G-) strain ATCC 27853", "assay": "Antimicrobial growth inhibition (CO-ADD), P. aeruginosa", "format": "cell-based, Pseudomonas aeruginosa", "settings": "ATCC 27853", "procedure": "as §1, §2, §3, §4, §5, §6, §7, §8, §9, §10"}, "[8]": {"test_system": "C. albicans (yeast) ATCC 90028", "assay": "Antimicrobial growth inhibition (CO-ADD), C. albicans", "format": "cell-based, Candida albicans", "settings": "Candida albicans, ATCC90028; ATCC 90028; read-out: MIC C. albicans", "procedure": "as §1, §2, §3\n(§11) The compounds submitted to CO-ADD were evaluated in duplicate (n = 2) against seven microorganisms (five bacteria and two fungi) at a concentration of 32 µg/mL in a 384-well, non-binding surface plate (NBS) for each bacterial/fungal strain, keeping the final DMSO concentration to a maximum of 1% DMSO. All bacteria were cultured in cation-adjusted […]\n(§12) Fungal strains were cultured for 3 days on Yeast Extract-Peptone Dextrose (YPD) agar at 30 °C. A yeast suspension of 1 x 10^6 to 5 x 10^6 CFU/mL (as determined by OD530) was prepared from five colonies. The suspension was subsequently diluted and added to each well of the compound-containing plates giving a final cell density of fungi suspension of 2.5 x 10^3 CFU/mL and a total volume of 50 µL. All plates were covered and incubated at 35 °C for 24 h without shaking. […]\nas §5, §6, §7, §8, §9\nDose-response evaluations were carried out to estimate the half-maximal inhibitory concentrations (IC50 values) for compounds against Haemonchus contortus (Haecon-5 strain) exsheathed third-stage larvae (xL3s). H. contortus were maintained in experimental sheep and procured in accordance with the institutional animal ethics guidelines and the regulations of Australia (permit no. 1714374; University of Melbourne). Immediately prior to use, third-stage larvae (L3s) were exsheathed and sterilised by incubation in 0.15% (v/v) bleach at 38 °C for 20 min, followed by washes in sterile saline at room temperature (22-24 °C). […]"}, "[9]": {"test_system": "C. neoformans var. grubii strain ATCC 208821", "assay": "Antimicrobial growth inhibition (CO-ADD), C. neoformans", "format": "cell-based, Cryptococcus neoformans", "settings": "duplicate (n = 2) values", "procedure": "as §1, §2, §3, §11, §12\nas §5, with “Growth inhibition of C. albicans was determined measuring absorbance at 530 nm (OD530), while the growth inhibition of C. neoformans was determined measuring the difference in absorbance between 600 and 570 nm (OD600-570), after the addition of resazurin (0.001% final concentration) and incubation at 35 °C for an additional 2 h.” for “2 h.”\nas §6, §7, §8, §9\nDose-response evaluations were carried out to estimate the half-maximal inhibitory concentrations (IC50 values) for compounds against Haemonchus contortus (Haecon-5 strain) exsheathed third-stage larvae (xL3s). H. contortus were maintained in experimental sheep and procured in accordance with the institutional animal ethics guidelines and the […]"}, "[10]": {"test_system": "C. neoformans var. grubii strain ATCC 208821", "assay": "Antimicrobial growth inhibition (CO-ADD), C. neoformans", "format": "cell-based", "settings": "Cryptococcus neoformans, ATCC208821; var. grubii ATCC 208821; read-out: MIC C. neoformans"}, "[11]": {"test_system": "Mediterranean fish species Blennius sphinx", "design": "method as in PMID 15018063", "settings": "cited from earlier work"}, "[12]": {"settings": "32 µg/mL, duplicate (n = 2) values"}}, "note": "Values joined by “and” are separate entries in the source; they are usually repeats but may differ in a detail not shown here. Equal values may be shown once.", "data": [{"compound": "COC1=C(Br)[C@@H](O)[C@]2(C=C1Br)CC(C(=O)NCCc1cnc[nH]1)=NO2", "note": "[aerophobin-1]", "values": [{"measurement": "concentration giving significant larval mortality", "setting": "[1]", "value": "> 1000", "unit": "nM"}]}, {"compound": "COC(=O)Cc1c(O)cc(Br)c(O)c1Br", "note": "[Compound 10, subereaphenol B]", "values": [{"measurement": "CC50", "setting": "[2]", "value": "> 32", "unit": "µg/mL"}, {"measurement": "Haemolysis (HC10)", "setting": "human red blood cells", "value": ">32", "unit": "µg/mL"}, {"measurement": "MIC", "setting": "[3]", "value": "> 32", "unit": "µg/mL"}, {"measurement": "% inhibition E. coli", "setting": "[4]; [12]", "value": "15.8% and 6.4%"}, {"measurement": "MIC", "setting": "[4]; Escherichia coli, ATCC25922, ATCC 25922, MIC = concentration at which growth inhibited by ≥80%, read-out: MIC E. coli", "value": "> 32", "unit": "µg/mL"}, {"measurement": "% inhibition K. pneumoniae", "setting": "[5]; [12]", "value": 9.3, "unit": "%"}, {"measurement": "inhibition at 32 µg/mL", "setting": "[5]; Klebsiella pneumoniae, ATCC700603, 32 µg/mL, duplicate (n = 2) values, read-out: % inhibition K. pneumoniae", "value": 6.1, "unit": "%"}, {"measurement": "MIC", "setting": "[5]; Klebsiella pneumoniae, ATCC700603, ATCC 700603, read-out: MIC K. pneumoniae", "value": "> 32", "unit": "µg/mL"}, {"measurement": "% inhibition A. baumannii", "setting": "[6]; [12]", "value": "−1.4% and −9.2%"}, {"measurement": "MIC", "setting": "[6]; Acinetobacter baumannii, ATCC19606, ATCC 19606, read-out: MIC A. baumannii", "value": "> 32", "unit": "µg/mL"}, {"measurement": "MIC", "setting": "[7]; Pseudomonas aeruginosa, ATCC27853, read-out: MIC P. aeruginosa", "value": "> 32", "unit": "µg/mL"}, {"measurement": "MIC", "setting": "[8]", "value": "> 32", "unit": "µg/mL"}, {"measurement": "% inhibition C. neoformans", "setting": "[9]; 32 µg/mL", "value": 8.5, "unit": "%"}, {"measurement": "inhibition at 32 µg/mL", "setting": "[9]; Cryptococcus neoformans, ATCC208821, 32 µg/mL, read-out: % inhibition C. neoformans", "value": 12.4, "unit": "%"}, {"measurement": "MIC", "setting": "[10]", "value": "> 32", "unit": "µg/mL"}]}, {"compound": "Colistin [reference compound]", "values": [{"measurement": "MIC E. coli", "setting": "[4]; ATCC 25922, MIC = concentration at which growth inhibited by ≥80%", "value": "Colistin: 0.125 µg/mL"}, {"measurement": "MIC K. pneumoniae", "setting": "[5]; ATCC 700603", "value": "Colistin: 0.25 µg/mL"}, {"measurement": "MIC A. baumannii", "setting": "[6]; ATCC 19606", "value": "Colistin: 0.25 µg/mL"}, {"measurement": "MIC P. aeruginosa", "setting": "[7]", "value": "Colistin: 0.25 µg/mL"}]}, {"compound": "CC/C(=C(\\c1ccccc1)c1ccc(OCCN(C)C)cc1)c1ccccc1", "note": "[Tamoxifen, reference compound]", "values": [{"measurement": "CC50", "setting": "[2]", "value": 9, "unit": "µg/mL"}]}, {"compound": "aplysinamisin-1 [reference compound]", "values": [{"measurement": "feeding deterrent activity, Blennius sphinx", "setting": "[11]", "value": "significant feeding deterrent activity"}]}]}
